Read-outs that look alike come from different tables or passages of the source. Ends that are not written are not given here.
Columns and labels:
[1] = tested on: Fc region (Jackson ImmunoResearch Laboratories, Inc.) labeled with horseradish peroxidase (HRP); assay: ELISA of recombinant phages displaying polypeptides (Example 1, 6); format: binding, human; details: recombinant T7 phage displaying the polypeptide, absorbance at 415 nm
Protocol: 6) In this section, it will be stated as an example that the binding activity of recombinant phages transformed by nucleic acids encoding the amino acid sequences represented by SEQ ID NOs: 2 to 9 and 11 to 19 was measured by Enzyme Linked Immuno-Sorbent Assay (ELISA).
DNA molecules encoding the amino acid sequences of SEQ ID NOs: 2 to 9 and 11 to 19 were amplified by a polymerase chain reaction (PCR). PCR was carried out using KOD DNA polymerase (TOYOBO) under reaction conditions according to the accompanying manual. The amplified DNA molecules were each digested with restriction enzymes EcoRI and HindIII and ligated to 3′ terminal of g10 gene on T7 phage genomic DNA. Ligation to T7 phage genomic DNA was performed by use of a sample attached to T7Select10-3 Cloning Kit (Novagen) under the reaction conditions and in accordance with the procedure described in the accompanying T7Select (registered trade mark) System Manual. Using T7 phage genomic DNA ligated, T7 phage was packaged in a test tube by T7Select Packaging Kit (Novagen) under the reaction conditions in accordance with T7Select (registered trade mark) System Manual (Novagen). Subsequently, phage plaques were formed in accordance with T7Select (registered trade mark) System Manual (Novagen). From each of the plaques, a recombinant phage displaying the polypeptide was isolated. To MICROTEST (registered trade mark) 96 (BECTON, DICKINSON AND COMPANY), a culture solution (0.2 mL) of Escherichia coli BL5403 strain cultured in LB medium until O.D.600 reached 1.0 was poured to infect with the Escherichia coli cells each of the recombinant phages isolated from plaques and allowed to stand still at 37° C. for 12 hours to proliferate phages. The culture solution (10 μL) containing these phages was diluted in 90 μL of TBS buffer (50 mM Tris-HCl, 150 mM NaCl, pH 7.4) to prepare measurement samples.
The measurement samples were poured to MEDISORP 96 well microplate (Nunc) and allowed to stand still for one hour to allow the phage to physically adsorb to the plate. After the supernatant was removed, SuperBlock (registered trade mark) T20 (TBS) Blocking Buffer (Thermo […]) (150 μL) was poured to the plate and allowed to stand still for one hour to block the surface of the plate. The plate was washed three times with TBS-T buffer (50 mM Tris-HCl, 150 mM NaCl, 0.1% Tween 20 (registered trade mark), pH 7.4). To the plate, TBS-T buffer (100 μL) containing an Fc region (Jackson ImmunoResearch Laboratories, Inc.) (0.2 μg/mL) labeled with horseradish peroxidase (HRP) was added and allowed to stand still for one hour. After the plate was washed three times with TBS-T buffer, ABTS One Component HRP Microwell Substrate (BioFX) (100 μL) was poured to the plate. Binding activity was detected through a color reaction. The absorbance at 415 nm (O.D.415) was measured by a microplate absorbance reader Sunrise R (TECAN GROUP LTD.). TBS-T buffer containing no phages was used as a negative control in a control experiment.
ELISA results of the recombinant phages displaying polypeptides containing amino acid sequences represented by SEQ ID NOs: 2 to 9 and the recombinant phages displaying polypeptides containing amino acid sequences represented by SEQ ID NOs: 11 to 19 are shown in Table 2A and Table 2B, respectively.

[2] = target: T1, Fc region prepared by digesting human monoclonal antibody IgG with papain (Homo sapiens, UniProt P01857); assay: Surface plasmon resonance, polypeptides on immobilized Fc region prepared from human monoclonal IgG (Example 2, 3) and 4); Example 8); format: binding
T1 construct: The Fc region to be immobilized to a sensor chip was prepared, by digesting human monoclonal antibody IgG with papain; made in house; host or cells: papain digest of human monoclonal IgG (Pierce Fab Preparation Kit), then MabSelect SuRe, HiTrap DEAE and Superdex 200
Protocol: The polypeptides, which were previously synthesized in an organic chemical manner were purchased from bio[…], were diluted with HBS-T buffer and controlled so as to have a concentration of 500, 400, 300, 200 or 100 nM. The surface plasmon resonance test was performed by using Biacore T100 (GE Healthcare). The Fc region to be immobilized to a sensor chip was prepared, by digesting human monoclonal antibody IgG with papain, in accordance with the instruction attached to Pierce (registered trade mark) Fab Preparation Kit (Thermo […]), followed by purifying by affinity chromatography using MabSelect SuRe (GE Healthcare), HiTrap DEAE anion exchange chromatography (GE Healthcare) and gel filtration chromatography using Superdex 200 (GE Healthcare). The Fc region prepared was immobilized to Sensor Chip CM5 (GE Healthcare) by the amine coupling method. The binding activity of the synthesized peptides prepared was measured and equilibrium dissociation constants were determined. Data were processed by use of Biacore TOO Evaluation Software (GE Healthcare).
4) In this section, it will be stated as an example that the binding activity of a polypeptide consisting of an amino acid sequence (referred to as p17) of SEQ ID NO: 57 was measured by surface plasmon resonance. The polypeptide was prepared by cleaving thioredoxin fusion protein p17_trx consisting of the amino acid sequence of SEQ ID NO: 86 with a protease and removing a thioredoxin portion. Since the thioredoxin fusion protein, which is produced by expression vector pET-48b (Novagen), has an HRV 3C protease cleavage site in the amino acid sequence, the desired polypeptide ligated to the C terminal can be obtained by use of protease.
DNA (SEQ ID NO: 124) encoding the thioredoxin fusion protein (SEQ ID NO: 86) containing p17 was synthesized by PCR and introduced to an expression vector, pET-48b (Novagen). Using the expression vector and in accordance with the same procedure as in Example, 1, 5), the thioredoxin fusion protein was prepared. The thioredoxin fusion protein (40 mg) was digested with 100 units of HRV 3C Protease (Novagen) at 4° C. under the reaction conditions according to the accompanying manual. The digested product was diluted in a 6 M guanidine hydrochloride solution and purified by gel filtration chromatography using Superdex Peptide 10/300 GL (GE Healthcare). Subsequently reverse phase chromatography using μRPC C2/C18 ST 4.6/100 (GE Healthcare) was performed to prepare a polypeptide p17 consisting of an amino acid sequence of SEQ ID NO: 57.
Subsequently, the binding activity of p17 prepared was measured by surface plasmon resonance by use of Biacore T100 (GE Healthcare).
Subsequently, the binding activity of five types of polypeptides prepared above was analyzed by surface plasmon resonance. Biacore T100 (GE Healthcare) was used in measurement. […]

[3] = target: human Fc region manufactured by Jackson ImmunoResearch Laboratories, Inc.; assay: Surface plasmon resonance, synthetic polypeptides on immobilized human Fc region (Example 1, 4); format: binding; details: synthetic polypeptide, 25° C., HBS-T buffer pH 7.4
Protocol: The polypeptides previously synthesized in an organic chemical manner were purchased from bio[…]. Biacore T100 (GE Healthcare) was used as a surface plasmon resonance measurement apparatus. The human Fc region manufactured by Jackson ImmunoResearch Laboratories, Inc. was immobilized to Sensor Chip CM5 (GE Healthcare) in accordance with an amine coupling method using an Amine Coupling Kit (GE Healthcare). […] The binding activity of these polypeptides was measured at a reaction temperature of 25° C. The measurement data were processed by Biacore TOO Evaluation Software (GE Healthcare).

IgG [4] = details: domains by themselves; Non Patent Literature 28 and 29; cited from earlier work
rabbit IgG = details: Non Patent Literature 5; cited from earlier work
IgG [5] = details: Non Patent Literature 4; read-out: equilibrium dissociation constant, KD; cited from earlier work
human IgG = details: competitive reaction with protein A; read-out: competitive inhibitory capacity Ki; cited from earlier work
[6] = variant polypeptide with alanine substitution, read-out: Equilibrium dissociation constant of p17 variant KD
[7] = read-out: equilibrium dissociation constant KD
[8] = synthetic polypeptide, read-out: equilibrium dissociation constants KD

rabbit IgG, sequence (P01870 101-323 limits assumed): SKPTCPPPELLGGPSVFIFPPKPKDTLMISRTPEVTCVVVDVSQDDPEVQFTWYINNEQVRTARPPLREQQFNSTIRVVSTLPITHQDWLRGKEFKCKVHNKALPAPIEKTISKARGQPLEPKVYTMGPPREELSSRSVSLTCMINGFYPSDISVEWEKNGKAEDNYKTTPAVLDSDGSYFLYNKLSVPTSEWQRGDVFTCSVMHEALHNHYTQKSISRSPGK

## 16 (HWVNGRSGYDPRTGTWRSSIAYGGG; IgG binding peptide, 2F4) [compound 16]
[1]; control 0.101
  O.D. 415: 0.373

## GPGISAFSPGRGVYDPETGTWYDAAWHLGELVWATYYDPETGTWEPDAQRMLGQ [SEQ ID NO: 176]
[2]; [6]
  Kd: 200 nM

## 7 (YDPRTGTWLLYASRLLG; IgG binding peptide, G3) [compound 7]
[1]; control 0.08
  O.D. 415: 0.214

## GPGISAFSPGRGVYDPETGTWYDAAWHLGELVWATYYDPETGTWEPDWQRMLGQ [SEQ ID NO: 57]
[2]; polypeptide obtained by protease cleavage of p17_trx, read-out: KD
  Kd: 1.6 nM
[2]; polypeptide obtained by protease cleavage of p17_trx, read-out: equilibrium dissociation constant KD
  Kd: 1.6 nM

## 3 (YDPGTGTWRSYLRFGGG; IgG binding peptide, H3) [compound 3]
[1]; control 0.08
  O.D. 415: 0.278

## GPGISAFSPGRGVYDPETGTWYDAAWHLGELVWATYYDPETGTWEPDWQAMLGQ [SEQ ID NO: 177]
[2]; [6]
  Kd: 7.8 nM

## 4 (YDPYTGTWRSSIWVLSG; IgG binding peptide, D5) [compound 4]
[1]; control 0.08
  O.D. 415: 0.165

## GVVRQWSGGGGSGGGGRSSIAYGGG [SEQ ID NO: 21]
[3]; [7]
  Kd: 23000 nM

## GPGISAFSPGRGVYDPETGTWYDAAWHLGELVWATYYDPETGTWEADWQRMLGQ [SEQ ID NO: 174]
[2]; [6]
  Kd: 5.6 nM

## DAAWHLGELVWATYYDPETGTWQPDWLYMTTR [SEQ ID NO: 24]
[2]; synthetic polypeptide, read-out: KD
  Kd: 120 nM

## protein G: bacteria-derived natural IgG-binding protein, conventionally used
IgG [4]
  Kd: ~490 nM

## protein A: IgG-binding protein derived from Staphylococcus, conventionally used
IgG [4]
  Kd: ~10 nM

## 19 (GAVYRRSFYDPRTGTWRSSIAYRGG; IgG binding peptide, 2F9) [compound 19]
[1]; control 0.101
  O.D. 415: 0.353

## RSSIAYGGG [SEQ ID NO: 22]
[3]; read-out: KD
  Kd: 110000 nM
[3]; [7]
  Kd: 110000 nM

## 15 (TGRGRSARYDPRTGTWRSSIAYGGG; IgG binding peptide, 2F2) [compound 15]
[1]; control 0.101
  O.D. 415: 0.396

## 8 (YDPVTGTWTSSIASWMG; IgG binding peptide, G11) [compound 8]
[1]; control 0.08
  O.D. 415: 0.223

## DAAWHLGELVWATYYDPETGTWAPDWRLMQGQ [SEQ ID NO: 25]
[2]; [8]
  Kd: 510 nM

## 12 (AGSRRAHGYDPRTGTWRSSIAYGGG; IgG binding peptide, 2A4) [compound 12]
[1]; control 0.101
  O.D. 415: 0.267

## 6 (YDPWTGTWRSFIWGGGG; IgG binding peptide, sC12) [compound 6]
[1]; control 0.08
  O.D. 415: 0.149

## 18 (GSVVRWRGYDPRTGTWRSSIAYGGG; IgG binding peptide, 2F7) [compound 18]
[1]; control 0.101
  O.D. 415: 0.36

## peptide from a synthesized branched tetrapolypeptide library (Arg Thr Xaa)4 Lys2 Lys Gly, competitively works with protein A (Fassina et al.) [TG19318]
Rabbit IgG
  Kd: 300 nM

## Asp Cys Ala Trp His Leu Gly Glu Leu Val Trp Cys Thr [Fc-III]
IgG [5]
  Kd: 185 nM
Human IgG
  Ki: 100 nM

## 5 (YDPGTGTWRSWLSFNVG; IgG binding peptide, E7) [compound 5]
[1]; control 0.08
  O.D. 415: 0.155

## 9 (YDPRTGTWRRSSLSYSG; IgG binding peptide, sA7) [compound 9]
[1]; control 0.08
  O.D. 415: 0.193

## DAAWHLGELVWATYYDPETGTWLPDWQTMAQK [SEQ ID NO: 26]
[2]; [8]
  Kd: 100 nM

## GPGISAFSPGRGVYDPETGTWYDAAWHLGELVWATYYDPETGTWEPAWQRMLGQ [SEQ ID NO: 175]
[2]; [6]
  Kd: 45 nM

## 14 (SWRRRGSSYDPRTGTWRSSIAYGGG; IgG binding peptide, 2H1) [compound 14]
[1]; control 0.101
  O.D. 415: 0.282
